From PubChem BioAssay AID1919006 (Molecular Pharmacology Branch, DTP, NCI, 2023)
pIC50: −log10 of the molar value.

Tested on: 885512-296-R-J2-PDC complex spheroid growth, % test/control
Assay: Anticancer human tumor 885512-296-R-J2-PDC patient-derived breast carcinoma cell line growth inhibition [AhR]
Settings: for pIC50: curve of first compound; for viability, T/C: stronger effect = lower value
Method in brief: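 Agents were dosed in half-log steps down from roughly clinical Cmax, or from 10 microM where Cmax was unknown, alone and with AhR antagonists. Read-out: percent test/control growth of tumor spheroids containing HUVEC and MSC stromal cells.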

[1] = second compound 0.1 µM, first compound 0.0316 µM
[2] = second compound 0.1 µM, first compound 0.1 µM
[3] = second compound 0.1 µM, first compound 0.316 µM
[4] = second compound 0.1 µM, first compound 1 µM
[5] = second compound 0.1 µM, first compound 3.16 µM
[6] = second compound 0.1 µM, first compound 10 µM
[7] = second compound 0.316 µM, first compound 0.0316 µM
[8] = second compound 0.316 µM, first compound 0.1 µM
[9] = second compound 0.316 µM, first compound 0.316 µM
[10] = second compound 0.316 µM, first compound 1 µM
[11] = second compound 0.316 µM, first compound 3.16 µM
[12] = second compound 0.316 µM, first compound 10 µM
[13] = second compound 1 µM, first compound 0.0316 µM
[14] = second compound 1 µM, first compound 0.1 µM
[15] = second compound 1 µM, first compound 0.316 µM
[16] = second compound 1 µM, first compound 1 µM
[17] = second compound 1 µM, first compound 3.16 µM
[18] = second compound 1 µM, first compound 10 µM
[19] = second compound 3.16 µM, first compound 0.0316 µM
[20] = second compound 3.16 µM, first compound 0.1 µM
[21] = second compound 3.16 µM, first compound 0.316 µM
[22] = second compound 3.16 µM, first compound 1 µM
[23] = second compound 3.16 µM, first compound 3.16 µM
[24] = second compound 3.16 µM, first compound 10 µM
[25] = second compound 10 µM, first compound 0.0316 µM
[26] = second compound 10 µM, first compound 0.1 µM
[27] = second compound 10 µM, first compound 0.316 µM
[28] = second compound 10 µM, first compound 1 µM
[29] = second compound 10 µM, first compound 3.16 µM
[30] = second compound 10 µM, first compound 10 µM
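Also: spheroids exposed to compounds for seven days.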

Molecule `CC1(C)CCC(CN2CCN(c3ccc(C(=O)NS(=O)(=O)c4ccc(NCC5CCOCC5)c([N+](=O)[O-])c4)c(Oc4cnc5[nH]ccc5c4)c3)CC2)=C(c2ccc(Cl)cc2)C1` + Cc1ccccc1N=Nc1ccc(NC(=O)c2ccnn2C)c(C)c1 has a pIC50 (second compound 0.1 µM) of 5.38, a pIC50 (second compound 0.316 µM) of 5.37 and a pIC50 (second compound 1 µM) of 5.38. For the same molecule, the pIC50 (second compound 3.16 µM) was 5.52, the pIC50 (second compound 10 µM) was 6.54 and the viability, T/C [1] was 107%. For the same molecule, the viability, T/C [2] was 85.4%, the viability, T/C [3] was 103% and the viability, T/C [4] was 90.2%. For the same molecule, the viability, T/C [5] was 61.4%, the viability, T/C [6] was 16.1% and the viability, T/C [7] was 109%. The viability, T/C [8] was 116%, the viability, T/C [9] was 102% and the viability, T/C [10] was 85.1%. The viability, T/C [11] was 63.7%, the viability, T/C [12] was 15.8% and the viability, T/C [13] was 97.9%. The viability, T/C [14] was 97.8%, the viability, T/C [15] was 94.2% and the viability, T/C [16] was 86%. The viability, T/C [17] was 60.4%, the viability, T/C [18] was 15.5% and the viability, T/C [19] was 93.8%. The viability, T/C [20] was 83.1%, the viability, T/C [21] was 83.3% and the viability, T/C [22] was 73.3%. For the same molecule, the viability, T/C [23] was 48.3%, the viability, T/C [24] was 14.9% and the viability, T/C [25] was 46.4%. For the same molecule, the viability, T/C [26] was 53.8%, the viability, T/C [27] was 53.2% and the viability, T/C [28] was 44.6%. It also gave a viability, T/C [29] of 40.2% and a viability, T/C [30] of 15.7%.

Work on `CCN(c1cc(-c2ccc(CN3CCOCC3)cc2)cc(C(=O)NCc2c(C)cc(C)[nH]c2=O)c1C)C1CCOCC1` + Cc1ccccc1N=Nc1ccc(NC(=O)c2ccnn2C)c(C)c1 yielded a pIC50 (second compound 0.1 µM) of under 5.52, a pIC50 (second compound 0.316 µM) of under 5.52 and a pIC50 (second compound 1 µM) of under 5.52. The pIC50 (second compound 3.16 µM) was under 5.52, the pIC50 (second compound 10 µM) was 6.94 and the viability, T/C (second compound 0.1 µM, first compound 0.00949 µM) was 116%. It also gave a viability, T/C (second compound 0.1 µM, first compound 0.03 µM) of 111%, a viability, T/C (second compound 0.1 µM, first compound 0.0949 µM) of 104% and a viability, T/C (second compound 0.1 µM, first compound 0.3 µM) of 80.5%. It also gave a viability, T/C (second compound 0.1 µM, first compound 0.949 µM) of 78.8%, a viability, T/C (second compound 0.1 µM, first compound 3 µM) of 79% and a viability, T/C (second compound 0.316 µM, first compound 0.00949 µM) of 117%. The viability, T/C (second compound 0.316 µM, first compound 0.03 µM) was 110%, the viability, T/C (second compound 0.316 µM, first compound 0.0949 µM) was 94.5% and the viability, T/C (second compound 0.316 µM, first compound 0.3 µM) was 89.8%. For the same molecule, the viability, T/C (second compound 0.316 µM, first compound 0.949 µM) was 80.8%, the viability, T/C (second compound 0.316 µM, first compound 3 µM) was 68.5% and the viability, T/C (second compound 1 µM, first compound 0.00949 µM) was 106%. For the same molecule, the viability, T/C (second compound 1 µM, first compound 0.03 µM) was 108%, the viability, T/C (second compound 1 µM, first compound 0.0949 µM) was 108% and the viability, T/C (second compound 1 µM, first compound 0.3 µM) was 87.2%. It also gave a viability, T/C (second compound 1 µM, first compound 0.949 µM) of 71%, a viability, T/C (second compound 1 µM, first compound 3 µM) of 65.7% and a viability, T/C (second compound 3.16 µM, first compound 0.00949 µM) of 98.6%. The viability, T/C (second compound 3.16 µM, first compound 0.03 µM) was 95.5%, the viability, T/C (second compound 3.16 µM, first compound 0.0949 µM) was 78.8% and the viability, T/C (second compound 3.16 µM, first compound 0.3 µM) was 69.6%. The viability, T/C (second compound 3.16 µM, first compound 0.949 µM) was 57.8%, the viability, T/C (second compound 3.16 µM, first compound 3 µM) was 60.1% and the viability, T/C (second compound 10 µM, first compound 0.00949 µM) was 49.1%. The viability, T/C (second compound 10 µM, first compound 0.03 µM) was 62.3%, the viability, T/C (second compound 10 µM, first compound 0.0949 µM) was 47.9% and the viability, T/C (second compound 10 µM, first compound 0.3 µM) was 45.8%. It also gave a viability, T/C (second compound 10 µM, first compound 0.949 µM) of 43.3% and a viability, T/C (second compound 10 µM, first compound 3 µM) of 40.6%.

Work on `COc1cc(Nc2ncc3c(n2)-c2ccc(Cl)cc2C(c2c(F)cccc2OC)=NC3)ccc1C(=O)O` + Cc1ccccc1N=Nc1ccc(NC(=O)c2ccnn2C)c(C)c1 yielded a pIC50 (second compound 0.1 µM) of 5.39, a pIC50 (second compound 0.316 µM) of under 5.00 and a pIC50 (second compound 1 µM) of 5.26. The pIC50 (second compound 3.16 µM) was 5.70, the pIC50 (second compound 10 µM) was over 7.50 and the viability, T/C [1] was 61.3%. For the same molecule, the viability, T/C [2] was 51.4%, the viability, T/C [3] was 59.2% and the viability, T/C [4] was 59.2%. It also gave a viability, T/C [5] of 52.2%, a viability, T/C [6] of 38.9% and a viability, T/C [7] of 62.9%. For the same molecule, the viability, T/C [8] was 48.8%, the viability, T/C [9] was 57.8% and the viability, T/C [10] was 50.6%. The viability, T/C [11] was 53.5%, the viability, T/C [12] was 47.6% and the viability, T/C [13] was 56.8%. It also gave a viability, T/C [14] of 54.8%, a viability, T/C [15] of 65.9% and a viability, T/C [16] of 58.1%. For the same molecule, the viability, T/C [17] was 46.2%, the viability, T/C [18] was 49% and the viability, T/C [19] was 51.4%. For the same molecule, the viability, T/C [20] was 46.6%, the viability, T/C [21] was 55% and the viability, T/C [22] was 54.4%. For the same molecule, the viability, T/C [23] was 47.1%, the viability, T/C [24] was 43.3% and the viability, T/C [25] was 45.6%. For the same molecule, the viability, T/C [26] was 40.9%, the viability, T/C [27] was 40.6% and the viability, T/C [28] was 39.6%. For the same molecule, the viability, T/C [29] was 36.5% and the viability, T/C [30] was 37.7%.

Molecule `Cn1ncnc1C1c2n[nH]c(=O)c3cc(F)cc(c23)NC1c1ccc(F)cc1` (stereo not given) + Cc1ccccc1N=Nc1ccc(NC(=O)c2ccnn2C)c(C)c1 has a pIC50 (second compound 0.1 µM) of 7.04, a pIC50 (second compound 0.316 µM) of under 7.00 and a pIC50 (second compound 1 µM) of under 7.00. For the same molecule, the pIC50 (second compound 3.16 µM) was under 7.00, the pIC50 (second compound 10 µM) was over 9.50 and the viability, T/C (second compound 0.1 µM, first compound 0.000316 µM) was 85.6%. The viability, T/C (second compound 0.1 µM, first compound 0.001 µM) was 99.2%, the viability, T/C (second compound 0.1 µM, first compound 0.00316 µM) was 89.9% and the viability, T/C (second compound 0.1 µM, first compound 0.01 µM) was 93%. For the same molecule, the viability, T/C [1] was 68.7%, the viability, T/C [2] was 48.4% and the viability, T/C (second compound 0.316 µM, first compound 0.000316 µM) was 110%. The viability, T/C (second compound 0.316 µM, first compound 0.001 µM) was 94.5%, the viability, T/C (second compound 0.316 µM, first compound 0.00316 µM) was 86% and the viability, T/C (second compound 0.316 µM, first compound 0.01 µM) was 87.7%. For the same molecule, the viability, T/C [7] was 76.3%, the viability, T/C [8] was 54.9% and the viability, T/C (second compound 1 µM, first compound 0.000316 µM) was 98.5%. It also gave a viability, T/C (second compound 1 µM, first compound 0.001 µM) of 82.9%, a viability, T/C (second compound 1 µM, first compound 0.00316 µM) of 96.6% and a viability, T/C (second compound 1 µM, first compound 0.01 µM) of 83.9%. It also gave a viability, T/C [13] of 67.5%, a viability, T/C [14] of 53.8% and a viability, T/C (second compound 3.16 µM, first compound 0.000316 µM) of 77.6%. For the same molecule, the viability, T/C (second compound 3.16 µM, first compound 0.001 µM) was 87.5%, the viability, T/C (second compound 3.16 µM, first compound 0.00316 µM) was 93% and the viability, T/C (second compound 3.16 µM, first compound 0.01 µM) was 83.5%. The viability, T/C [19] was 67.4%, the viability, T/C [20] was 52.1% and the viability, T/C (second compound 10 µM, first compound 0.000316 µM) was 50.1%. It also gave a viability, T/C (second compound 10 µM, first compound 0.001 µM) of 49.9%, a viability, T/C (second compound 10 µM, first compound 0.00316 µM) of 46.5% and a viability, T/C (second compound 10 µM, first compound 0.01 µM) of 47.2%. The viability, T/C [25] was 50.2% and the viability, T/C [26] was 44.2%.

`NS(=O)(=O)OCC1CC(n2ccc3c(NC4CCc5ccccc54)ncnc32)CC1O` (stereo not given) + Cc1ccccc1N=Nc1ccc(NC(=O)c2ccnn2C)c(C)c1 was tested, and the pIC50 (second compound 0.1 µM) was 7.02, the pIC50 (second compound 0.316 µM) was 7.05 and the pIC50 (second compound 1 µM) was 7.05. For the same molecule, the pIC50 (second compound 3.16 µM) was 7.09, the pIC50 (second compound 10 µM) was 7.24 and the viability, T/C [1] was 93.2%. For the same molecule, the viability, T/C [2] was 47.9%, the viability, T/C [3] was 16.2% and the viability, T/C [4] was 6.95%. The viability, T/C [5] was 4.75%, the viability, T/C [6] was 5.39% and the viability, T/C [7] was 94.9%. The viability, T/C [8] was 45.5%, the viability, T/C [9] was 14.1% and the viability, T/C [10] was 6.56%. It also gave a viability, T/C [11] of 4.96%, a viability, T/C [12] of 5.27% and a viability, T/C [13] of 96.5%. The viability, T/C [14] was 44.2%, the viability, T/C [15] was 16.7% and the viability, T/C [16] was 7.31%. It also gave a viability, T/C [17] of 5.64%, a viability, T/C [18] of 6.16% and a viability, T/C [19] of 84.5%. For the same molecule, the viability, T/C [20] was 42%, the viability, T/C [21] was 14.1% and the viability, T/C [22] was 6.49%. For the same molecule, the viability, T/C [23] was 4.75%, the viability, T/C [24] was 5.47% and the viability, T/C [25] was 67%. For the same molecule, the viability, T/C [26] was 34.3%, the viability, T/C [27] was 13.7% and the viability, T/C [28] was 4.96%. For the same molecule, the viability, T/C [29] was 3.85% and the viability, T/C [30] was 4.91%.
